{"source": "patent US20220193016A1", "about": "“COMPOSITIONS, METHODS AND USES FOR TARGETING C-TERMINAL BINDING PROTEIN (CtBP) IN [sequence] BRAIN INJURY” (THE REGENTS OF THE UNIVERSITY OF COLORADO, A BODY CORPORATE, priority 2019, published 2022)", "key": {"[1]": {"tested_on": "repetitive mild TBI (two 0.5 J impacts 24 h apart)", "assay": "Repetitive mild TBI in mice (NSS, brain mRNA)", "format": "in vivo, mouse", "protocol": "In another exemplary experiment, mice (n=4 per group) were subjected to a single mild TBI of 0.5 J dose at 0 h (sTBI) or two doses of 0.5 J mild TBI (rTBI) that were 24 h apart, at 0 h and 24 h. Animals with rTBI were separated into three. groups untreated, intraperitoneally injected with MTOB (860 mg/kg) or NSC95397 (1.5 mg/kg) at 1 h and 18 h. Animals were tested right before the two MTOB injection (0 h and 18 h) and then daily for neurobehavioral preformance. At the end point (72 h), the brain and circulating leukocytes were collected for molecular and immunostaining analyses.\nFIGS. 9A-9D. Administration of MTOB and NSC95397 after a single mild TBI effectively subdues neuroinflammation and improves neurological outcome elicited by a second mild TBI. Mice (n=4 per group) were subjected to a single mild TBI of 0.5 J dose at 0 h (sTBI) or two doses of 0.5 J mild TBI, 24 h apart, at 0 h and 24 h (rTBI). The three rTBI groups were either untreated, treated with MTOB (860 mg/kg) or NSC95397 (1.5 mg/kg) at […] and 18 h. (9A) Neurobehavioral severity scale (NSS) analysis was performed at the indicated time points after the first TBI; the scores were shown as mean+SD. (9B) Bar graphs represent mean±SD of fold changes in mRNA levels in the brain. (9A) Experimental timeline. Mice received a single head impact of 0.5 J energy (1×TBI), or two 0.5 J impacts (2×TBI) spaced 24 h apart. […]"}, "[2]": {"tested_on": "DNFB-induced contact hypersensitivity (CHS)", "assay": "DNFB mouse model of contact hypersensitivity", "format": "in vivo", "conditions": "peptides topically on the ear day 6 through day 9", "description": "In another exemplary method, FIG. 14A-14B illustrate the effectiveness of additional CtBP inhibiting peptides in reducing skin inflammation caused by sensitization and elicitation with the hapten 2,4-dinitrofluorobenzene (DNFB). Peptides MH-3, MH-4, MH-6 and MH-7 were derived from MH-2, all containing a polyarginine sequence to promote membrane transduction, with variations at the linker or flanking sequence of the PIDLS motif. […] The thickness of the epidermis of the ear is indicated by the red square bracket. It is noted that the DNFB-induced CHS in mice is an established model for human allergic contact dermatitis, both of which are T cell-mediated delayed hypersensitivity responses. Mice (n=3) were sensitized on day 1 with […] of 0.5% DNFB on the abdomen surface and challenged on day 6 with […] of 0.5% DNFB on both sides of the ears to trigger T memory cell-mediated hypersensitivity reaction. Peptides ([…]) were topically administered on both sides of the ear 1 h after the DNFB application on day 6 through day 9. Ear swelling and reddening were examined daily till the end point (day 9)."}, "[3]": {"tested_on": "imiquimod-induced psoriasis-like skin inflammation", "assay": "Imiquimod animal model of psoriasis-like skin inflammation", "format": "in vivo, mice", "conditions": "peptides topically daily from day 3 of imiquimod course; day 7"}, "[4]": {"tested_on": "LPS-activated primary astrocytes", "assay": "LPS-induced expression of CtBP target genes in primary astrocytes (mRNA)", "format": "cell-based", "conditions": "primary astrocytes from neonatal mouse brain, data not shown"}, "[5]": {"tested_on": "LPS-activated primary microglia", "assay": "LPS-induced expression of CtBP target genes in primary microglia (mRNA)", "format": "cell-based, mouse", "conditions": "for LPS-induced expression of the CtBP-controlled inflammatory genes: primary microglia from neonatal mouse brain, 20 μM peptide 2 h, then 200 ng/mL LPS 2 h, mRNA"}, "[6]": {"tested_on": "isolated mouse hippocampus", "assay": "LPS-induced expression of CtBP target genes in isolated mouse hippocampus", "conditions": "20 mM Pep1-E1As 2 h, then 200 ng/mL LPS 2 h; mRNA, FIG. 6C", "protocol": "In another exemplary method, a CtBP inhibitor was analyzed for effects on CtBP target gene expression using methods disclosed herein. […] FIG. 6A represents primary microglia that were incubated with 20 μM Pep1-E1As for 2 hours followed by 2 hours of treatment with 200 ng/mL LPS. Bar graphs represent mean±SD of fold changes in mRNA levels. […] FIG. 6C represents isolated mouse hippocampus that were incubated with […] Pep1-E1As for 2 hours followed by 2 hours treatment with 200 ng/mL LPS. Bar graphs represent mean±SD of fold changes in mRNA levels."}, "RAW264.7 cells": {"tested_on": "RAW264.7 cells", "assay": "Expression of CtBP target genes in LPS-activated RAW264.7 macrophage cell line (RT-qPCR)", "format": "cell-based, mouse", "conditions": "siRNA 24 h, then LPS 200 ng/ml 6 h", "protocol": "(§1) Murine RAW264.7 (A) and BV2 (B) cells were transfected with siRNAs specific for CtBP1 and CtBP2 or scrambled control siRNAs for a period of 24 h, followed by LPS stimulation (200 ng/ml) for 6 h. Total RNA was extracted and analyzed by the RT-qPCR. Relative mRNA expression was normalized to that of ACTB and depicted as fold changes vs. scrambled siRNA transfected and non-stimulated control (Untreated). Data are presented as mean±SD. n=3; **p<0.01, ***p<0.001. FIG. 2C illustrates LPS-induced binding of CtBP1, CtBP2 and p300 to the IL1β, IL6, TNFα and S100A8 gene promoters. Chromatin fractions from control and LPS-treated BV2 cells were precipitated with antibodies specific to CtBP1, CtBP2 and p300. Bars represent fold changes of relative ChIP signals normalized to the respective controls.\n(§2) In this exemplary study, cells were pretreated with 0.5 or 2.5 mM MTOB for 2 h or 18 h, then with 100 ng/mL LPS for an additional 2 h before being harvested for analysis, using RT-qPCR. Bar graphs represent mean±SD of fold changes in mRNA levels. […]\nIn another exemplary method as illustrated in FIG. 11 relative CtBP1, CtBP2, IL6, S100A8, NRLP3, E-cadherin and Bax mRNA levels in RAW264.7 macrophages stimulated with 100 ng/ml of LPS for 6 h before post-treatment with MTOB for 2 h and at dosages of 0.5 mM and 2.5 mM MTOB sodium salt were analyzed. […]"}, "BV2 cells": {"tested_on": "BV2 cells", "assay": "Expression of CtBP target genes in LPS-activated BV2 microglia cell line (RT-qPCR)", "format": "cell-based, mouse", "conditions": "siRNA 24 h, then LPS 200 ng/ml 6 h", "protocol": "In one exemplary method, BV2 cells were treated with CtBP-specific siRNAs 24 hours prior to a 6-hour treatment with LPS. In this example, siCtBP1 (SEQ. NO.1) and siCtBP2 (SEQ. NO.2) were used. Relative mean mRNA levels (±SD) were determined by RT-qPCR, performed in triplicate and in two independent experiments.\nas §1, §2"}}, "data": [{"compound": "O=C1C(SCCO)=C(SCCO)C(=O)c2ccccc21", "note": "[NSC95397, 2,3-Bis[(2-hydroxyethyl)thio]-1,4-naphthoquinone]", "values": [{"measurement": "inflammatory gene induction (brain mRNA) after repetitive mild TBI", "setting": "[1]; i.p. MTOB 860 mg/kg or NSC95397 1.5 mg/kg at 1 h and 18 h, 72 h after first injury", "result": "significantly reduced"}, {"measurement": "neurobehavioral defects (NSS) after repetitive mild TBI", "setting": "[1]; i.p. MTOB 860 mg/kg or NSC95397 1.5 mg/kg at 1 h and 18 h after first injury", "result": "significantly reduced"}]}, {"compound": "MH-2: SEQ ID NO. 19 RRRRRRRRGGPIDLSKKA (18 aa) (Synthetic Sequence - MH-2)", "values": [{"measurement": "epidermal hyperproliferation of the ear", "setting": "[2]", "result": "reducing epidermal hyperproliferation and immunocyte infiltration"}, {"measurement": "immunocyte infiltration (CD45 immunohistochemistry)", "setting": "[2]", "result": "reducing epidermal hyperproliferation and immunocyte infiltration"}, {"measurement": "imiquimod-induced epidermal proliferation (H&E, epidermis thickness)", "setting": "[3]", "result": "as effective in reducing imiquimod-induced epidermal proliferation as the prototype Pep1-E1A"}]}, {"compound": "Pep1-E1AWT: SEQ ID NO. 5 GSHMKETWWETWWTEWSQPKKKRKVLEEPGQPLDLSCKRPRDYKDDDDK; FLAG-tagged Pep1 fusion with wild-type E1A sequence", "values": [{"measurement": "LPS-induced expression of the CtBP-controlled inflammatory genes", "setting": "[4]", "result": "inhibited LPS-induced expression"}, {"measurement": "LPS-induced expression of the CtBP-controlled inflammatory genes", "setting": "[4]; listed as Pep1-E1A", "result": "strongly suppressed"}, {"measurement": "LPS-induced expression of the CtBP-controlled inflammatory genes", "setting": "[5]", "result": "inhibited LPS-induced expression"}, {"measurement": "LPS-induced expression of the CtBP-controlled inflammatory genes", "setting": "[5]; listed as Pep1-E1A", "result": "strongly suppressed"}, {"measurement": "basal mRNA levels of CDH1 and BAX (genes repressed by CtBPs)", "setting": "[5]; primary microglia, FIG. 6A right panel", "result": "increased the basal mRNA levels"}, {"measurement": "expression of CtBP target gene in LPS-activated isolated mouse hippocampus", "setting": "[6]", "result": "inhibition of expression of CtBP target gene"}, {"measurement": "imiquimod-induced epidermal proliferation (H&E, epidermis thickness)", "setting": "[3]", "result": "reducing imiquimod-induced epidermal proliferation"}]}, {"compound": "siRNAs specific for CtBP1 and CtBP2: simultaneous use of mouse siCtBP1 (SEQ. NO.1) and siCtBP2 (SEQ. NO.2) (chain 1 UCUUCCACAGUGUGACUGCGUUAUUUU; chain 2 GCCUUUGGAUUCAGCGUCAUAUUU; listed as RNA, chemistry not given here)", "values": [{"measurement": "mRNA expression of proinflammatory genes after knockdown", "setting": "RAW264.7 cells", "result": "suppresses mRNA expression of proinflammatory genes"}, {"measurement": "mRNA expression of proinflammatory genes after knockdown", "setting": "BV2 cells", "result": "suppresses mRNA expression of proinflammatory genes"}]}]}
